Where two headings read alike, the source gives them in different places.
What was measured:
[1] = tested on: guinea pigs having colitis caused by amylopectine sulfate; experiment: Effect on colitis induced by administration of amylopectine sulfate (APS); assay type: in vivo, guinea pig (Hartley strain); conditions: 2 weeks; for Symptom: Colitis Incidence: saline group 100%; for Symptom: Area of Ulcer: saline group 120 ± 24
Method: Effect on colitis induced by administration of amylopectine sulfate (according to the method reported in J. Gastroenterology, 67, 473-483, 1974 by Marcus, R and Watt)
Sixty male guinea pigs of Hartley strain (body weight: 200 grams) were used. Among them, fifty guinea pigs were given tap water containing 1% amylopectine sulfate ("APS") as drinking water and were bred for four weeks. (APS contains about 15% sulfur.)
The animals in these five groups were administered 1 ml/kg/day of physiological saline solution and 5, 10, 25 and 50 mg/kg/day of compound I for two weeks by oral route. The other ten guinea pigs were untreated controls and were given untreated tap water as drinking water and were bred for four weeks under the same circumstances as those of the experimental groups.
After two weeks, the animals were killed by overinhalation of ether, the large intestines were removed and the degree of colitis was determined by observing the incidence of ulcers and the area of ulcers with a stereoscopic microscope (×10). The results are given in Table 1, and the changes in body weight during the administration of the compound I is given in the drawing.

intestinal bacteria = experiment: action on intestinal bacteria, standard test by Japan Antibiotic Association
Source text: As a mechanism for the resulting colitis by administration of APS, the physico-chemical properties of APS must be involved. […] Therefore, there is no contribution of antibacterial activity in the effect of compound I against colitis. In view of the above, it is clear that the effect of the compound I against colitis is due to the direct protection of large intestinal mucosal cells by compound I.

[2] = tested on: hepatic and renal disorders induced by carbon tetrachloride in rats; experiment: Effect on hepatic and renal disorders induced by administration of carbon tetrachloride; assay type: in vivo, rat (Sprague-Dawley strain); conditions: after CCl4; for Body Weight: average ± S.E., n=10; for Liver Wt.: saline 10.5 ± 1.9; for BUN: saline 56.6 ± 10.6; for GPT: saline 2206 ± 298; for LDH: saline 22425 ± 9211
Method: Effect on hepatic and renal disorders induced by administration of carbon tetrachloride
Five groups of male rats of Sprague-Dawley strain (body weight: 200 grams) were used (ten rats per group). All of these rats were given 4 ml/kg of 50% carbon tetrachloride (used with olive oil) by oral route. After 24 hours, the rats were killed by decapitation, and blood was taken and the liver was isolated therefrom. Previously, the rats were fasted for 18 hours before taking blood therefrom. The blood was subjected to quantitative determination of GOT, GPT, LDH and BUN and the weights of isolated livers were measured.
Compound I was given to the rats of four groups, two to six hours after the administration of carbon tetrachloride (in other words, at the time when hepatic and renal disorders caused by carbon tetrachloride had already appeared) at the dose of 5, 10, 25 or 50 mg/kg by oral route. Physiological saline in an amount of 1 ml/kg/day to the rats of the fifth group. Rats of a sixth group that received no carbon tetrachloride, served as a control, and were also autospied, as above.

erythrocytic membrane = experiment: Enhancement of resistance of erythrocytic membrane (hypoosmotic hemolysis); assay type: cell-based, rat (Sprague-Dawley strain); conditions: for inhibition at 770 µM / hemolysis at 770 µM: Rattus norvegicus, Erythrocyte, 0.5 h; for inhibition at 770 µM: read-out: Percent Inhibition Ratio (hemolysis); for hemolysis at 770 µM: average of five ± S.E., p < 0.05
Method: Enhancement of resistance of erythrocytic membrane
Sprague-Dawley strain rats were treated with heparine and blood samples were obtained therefrom. The blood was centrifuged at 3000 rpm for ten minutes to remove blood plasma and then washed with 10 mM phosphate buffer-physiological saline solution (pH 7) to wash erythrocyte. To each volume of blood required to obtain the erythrocyte, 19 volumes of hypoosmotic solution (containing 10 mM phosphate buffer) was added and an erythrocyte suspension (5% erythrocyte suspension) was prepared. With reference to hemolysis, the absorbancy (O.D.) at 540 nm using distilled water as the hypoosmotic solution so that completely hemolyzed was defined as "100% hemolysis".
An erythrocyte suspension with 0.4%/0.45% hypoosmotic saline solution was incubated at 37° C. for 30 minutes, centrifuged at 3000 rpm for 10 minutes, and the percent hemolysis was calculated from the O.D. of the supernatant liquid.

[3] = Acute toxicity test in mice; assay type: in vivo; conditions: mouse, in vivo, read-out: LD50 (95% fiducial limits)
Source text: (§1) The LD50 values of compound I in ddY strain mice (6 weeks of age) and in Sprague-Dawley strain rats (7 weeks of age) are given in Table 4.

ddY strain mice = experiment: Acute toxicity test in mice; assay type: in vivo; conditions: mice and rats
Source text: as §1

[4] = Acute toxicity test in rats; conditions: rat, in vivo, read-out: LD50 (95% fiducial limits)
Source text: as §1

solubility in water = assay type: physicochemical

## Nc1nc(N)nc(-c2cc(Cl)ccc2Cl)n1.O=C(O)/C=C\C(=O)O [Compound I, 2,4-diamino-6-(2', 5'-dichlorophenyl)-s-triazine maleate]
[1]; 5 mg/kg/day oral
  Average Intake of APS, after administration of Compound I: 0.91 g/kg/2w
  Symptom: Colitis Incidence: 90%
  Symptom: Area of Ulcer: 65 ± 20 mm^2
[1]; 5 mg/kg/day oral, saline group 2 ± 10, control 110 ± 11
  Increase in Body Weight (2-4 wks): 11 ± 12 g
[1]; 10 mg/kg/day oral
  Average Intake of APS, after administration of Compound I: 1.12 g/kg/2w
  Symptom: Colitis Incidence: 80%
  Symptom: Area of Ulcer: 50 ± 24 mm^2
[1]; 10 mg/kg/day oral, saline group 2 ± 10, control 110 ± 11
  Increase in Body Weight (2-4 wks): 26 ± 15 g
[1]; 25 mg/kg/day oral
  Average Intake of APS, after administration of Compound I: 1.26 g/kg/2w
  Symptom: Colitis Incidence: 60%
[1]; 25 mg/kg/day oral, saline group 2 ± 10, p < 0.05
  Increase in Body Weight (2-4 wks): 36 ± 13 g
[1]; 25 mg/kg/day oral, p < 0.05
  Symptom: Area of Ulcer: 43 ± 15 mm^2
[1]; 50 mg/kg/day oral
  Average Intake of APS, after administration of Compound I: 1.24 g/kg/2w
  Symptom: Colitis Incidence: 60%
[1]; 50 mg/kg/day oral, saline group 2 ± 10, p < 0.05
  Increase in Body Weight (2-4 wks): 54 ± 10 g
[1]; 50 mg/kg/day oral, p < 0.05
  Symptom: Area of Ulcer: 34 ± 12 mm^2
[1]; oral
  effect on body weight of afflicted animals (in words, drawing): greatly increases the body weight of the afflicted animals
  effect on colitis (in words): improvement in the colitis followed by increase in body weight was observed
  intake of APS (in words): the intake of APS did not decrease, but rather increased
Intestinal bacteria
  action on intestinal bacteria: does not exhibit any action on intestinal bacteria
[2]; 5 mg/kg oral
  Body Weight: 198.6 ± 0.5 g
  Liver Wt.: 9.6 ± 2.2 g
  BUN: 42.0 ± 9.8 mg/dL
  GPT: 1920 ± 306 Karmen Unit
  LDH: 16341 ± 9009 Wroblewski Unit
[2]; 5 mg/kg oral, saline printed 3,91 ± 361
  GOT: 2215 ± 250 Karmen Unit
[2]; 10 mg/kg oral
  Body Weight: 199.1 ± 0.7 g
  Liver Wt.: 9.5 ± 2.5 g
  BUN: 34.6 ± 7.2 mg/dL
  GPT: 1566 ± 354 Karmen Unit
  LDH: 12209 ± 6214 Wroblewski Unit
[2]; 10 mg/kg oral, p < 0.05 vs saline
  GOT: 1822 ± 249 Karmen Unit
[2]; 25 mg/kg oral
  Body Weight: 200.6 ± 0.6 g
  Liver Wt.: 8.3 ± 1.5 g
  BUN: 31.4 ± 8.8 mg/dL
  LDH: 8054 ± 3666 Wroblewski Unit
[2]; 25 mg/kg oral, p < 0.05
  GPT: 1012 ± 261 Karmen Unit
[2]; 50 mg/kg oral
  Body Weight: 198.6 ± 0.8 g
  Liver Wt.: 7.4 ± 2.0 g
[2]; 50 mg/kg oral, p < 0.05 vs saline
  GOT: 1339 ± 211 Karmen Unit
[2]; 50 mg/kg oral, p < 0.05
  BUN: 29.7 ± 3.5 mg/dL
  GPT: 805 ± 134 Karmen Unit
  LDH: 5003 ± 1642 Wroblewski Unit
[2]; oral
  effect on increase of BUN (in words): inhibited the increase of BUN
  effect on liver weight, GOT, GPT and LDH (in words): depressed the increase of liver weight and the increase in GOT, GPT, and LDH
Erythrocytic membrane; 0.77 mM, 0.4 and 0.45% saline
  inhibition of hemolysis (in words): shows inhibition of hemolysis
  protective action to erythrocyte membranes (in words): exhibits protective action to erythrocyte membranes
Erythrocytic membrane; 0.77 mM, 0.4% saline solution
  inhibition at 770 µM: 35.5%
Erythrocytic membrane; 0.77 mM, 0.45% saline solution
  inhibition at 770 µM: 62.2%
Erythrocytic membrane; read-out: Percent Hemolysis Ratio, 0.77 mM, 0.4% saline solution, control 70.8 ± 0.6
  hemolysis at 770 µM: 45.7 ± 1.8%
Erythrocytic membrane; read-out: Percent Hemolysis Ratio, 0.77 mM, 0.45% saline solution, control 27.5 ± 2.1
  hemolysis at 770 µM: 10.4 ± 1.1%
[3]; ip, mice female, intraperitoneal
  LD50: 1010 mg/kg
[3]; ip, mice male, intraperitoneal
  LD50: 775 mg/kg
[3]; po, mice female, oral
  LD50: 5700 mg/kg
[3]; po, mice male, oral
  LD50: 6040 mg/kg
[3]; sc, mice female, subcutaneous
  LD50: 3220 mg/kg
[3]; sc, mice male, subcutaneous
  LD50: 2840 mg/kg
ddY strain mice
  safety (LD50 compared with effective dose, in words): highly safe
[4]; ip, rats female, intraperitoneal
  LD50: 789 mg/kg
[4]; ip, rats male, intraperitoneal
  LD50: 802 mg/kg
[4]; po, rats female, oral
  LD50: 2920 mg/kg
[4]; po, rats male, oral
  LD50: 2900 mg/kg
[4]; sc, rats female, subcutaneous
  LD50: 1520 mg/kg
[4]; sc, rats male, subcutaneous
  LD50: 1600 mg/kg
Solubility in water; saturated solution in water
  solubility at 0.5 h: 770 µM
Solubility in water; water
  solubility in water (in words): hardly soluble in water
